Among the data in ChEMBL document CHEMBL3112404, “Click chemistry inspired facile synthesis and bioevaluation of novel triazolyl analogs of Ludartin” (Bioorg Med Chem Lett, 2014) are inhibition of growth and IC50 values, retold here.

The subject of experiment [1] is A549. Kind of experiment: Cytotoxicity against human A549 cells assessed as growth inhibition at 50 uM by colorimetric sulphorhodamine B assay. The following applies: read-out: GI. Format: functional.
In experiment [2] the test system is PC-3. Kind of experiment: Cytotoxicity against human PC3 cells assessed as growth inhibition at 50 uM by colorimetric sulphorhodamine B assay. Format: functional. The following applies: read-out: GI. Background: In SRB staining, fixed cells bind dye roughly in proportion to their protein.
Experiment [3] deals with MCF7. Kind of experiment: Cytotoxicity against human MCF7 cells assessed as growth inhibition at 50 uM by colorimetric sulphorhodamine B assay. In kind it is functional. The following applies: read-out: GI.
Experiment [4] concerns HCT-116. Kind of experiment: Cytotoxicity against human HCT116 cells assessed as growth inhibition at 50 uM by colorimetric sulphorhodamine B assay. Format: functional. The conditions noted are these: read-out: GI.
The subject of experiment [5] is T98G. Kind of experiment: Cytotoxicity against human T98G cells assessed as growth inhibition at 50 uM by colorimetric sulphorhodamine B assay. In kind it is functional. The conditions noted are these: read-out: GI.
Experiment [6] has as its system T98G. Kind of experiment: Cytotoxicity against human T98G cells assessed as growth inhibition by colorimetric sulphorhodamine B assay. In kind it is functional, cell-based.
In experiment [7] the test system is MCF7. Kind of experiment: Cytotoxicity against human MCF7 cells assessed as growth inhibition by colorimetric sulphorhodamine B assay. Format: functional, cell-based.
In experiment [8] the test system is HCT-116. Kind of experiment: Cytotoxicity against human HCT116 cells assessed as growth inhibition by colorimetric sulphorhodamine B assay. Format: functional, cell-based.
The test system of experiment [9] is A549. Kind of experiment: Cytotoxicity against human A549 cells assessed as growth inhibition by colorimetric sulphorhodamine B assay. Format: functional, cell-based.
For experiment [10], the system named is PC-3. Kind of experiment: Cytotoxicity against human PC3 cells assessed as growth inhibition by colorimetric sulphorhodamine B assay. Format: functional, cell-based.

Consider `COc1ccc(-n2cc(CNC[C@@H]3C(=O)O[C@H]4[C@H]3CCC(C)=C3C[C@H]5O[C@@]5(C)[C@@H]34)nn2)cc1`, for which the inhibition of growth at 50 µM in the experiment on A549 [1] amounted to 20%; in the experiment on PC-3 [2], 0%; with MCF7 [3] it was 0%; with HCT-116 [4], 0%; in the experiment with T98G [5] it was 0%.
For `CC1=C2C[C@H]3O[C@@]3(C)[C@@H]2[C@H]2OC(=O)[C@@H](CNCc3cn(-c4ccccc4[N+](=O)[O-])nn3)[C@@H]2CC1`, the inhibition of growth at 50 µM in the experiment on A549 [1] was 17%; with PC-3 [2], 0%; in the experiment with MCF7 [3], 0%; in the experiment with HCT-116 [4] it was 0%; in the experiment on T98G [5], 0%.
Consider `CC1=C2C[C@H]3O[C@@]3(C)[C@@H]2[C@H]2OC(=O)[C@@H](CNCc3cn(-c4cccc([N+](=O)[O-])c4)nn3)[C@@H]2CC1`, for which the inhibition of growth at 50 µM in the experiment with A549 [1], with PC-3 [2], in the experiment on MCF7 [3], in the experiment with HCT-116 [4] and in the experiment with T98G [5] was 0% throughout.
Regarding `CC1=C2C[C@H]3O[C@@]3(C)[C@@H]2[C@H]2OC(=O)[C@@H](CNCc3cn(-c4ccc([N+](=O)[O-])cc4)nn3)[C@@H]2CC1`, the inhibition of growth at 50 µM turned out to be 26% in the experiment on A549 [1]; 0% with PC-3 [2]; 0% in the experiment on MCF7 [3]; 0% with HCT-116 [4]; 0% with T98G [5].
As to `CC1=C2C[C@H]3O[C@@]3(C)[C@@H]2[C@H]2OC(=O)[C@@H](CNCc3cn(-c4ccccc4C#N)nn3)[C@@H]2CC1`, the inhibition of growth at 50 µM was determined as 46% with A549 [1]; 22% in the experiment with PC-3 [2]; 12% in the experiment on MCF7 [3]; 20% with HCT-116 [4]; 42% in the experiment with T98G [5].
On the same counts, the results for `CC1=C2C[C@H]3O[C@@]3(C)[C@@H]2[C@H]2OC(=O)[C@@H](CNCc3cn(-c4cccc(C#N)c4)nn3)[C@@H]2CC1` are 10%, 0%, 0%, 0% and 0%.
The like results for `CC1=C2C[C@H]3O[C@@]3(C)[C@@H]2[C@H]2OC(=O)[C@@H](CNCc3cn(-c4ccc(C#N)cc4)nn3)[C@@H]2CC1` were, in that order, 0%, 0%, 0%, 0% and 0%.
On the same counts, the results for `CC1=C2C[C@H]3O[C@@]3(C)[C@@H]2[C@H]2OC(=O)[C@@H](CNCc3cn(-c4ccc(F)cc4F)nn3)[C@@H]2CC1` are 19%, 21%, 29%, 0% and 12%.
On to `CC1=C2C[C@H]3O[C@@]3(C)[C@@H]2[C@H]2OC(=O)[C@@H](CNCc3cn(-c4cccc(CO)c4)nn3)[C@@H]2CC1`, for which the inhibition of growth at 50 µM was 47% in the experiment with A549 [1]; 0% with PC-3 [2]; 13% in the experiment with MCF7 [3]; 11% in the experiment with HCT-116 [4]; 0% with T98G [5].
In general, IC50 refers to the concentration at which inhibition is half-maximal. In the case of `CC1=C2C[C@H]3O[C@@]3(C)[C@@H]2[C@H]2OC(=O)[C@@H](CNCc3cn(-c4ccc(C)c(C)c4)nn3)[C@@H]2CC1`, the concentration for half-maximal inhibition (IC50) came to 12 µM in the experiment on T98G [6]; 8.5 µM in the experiment on MCF7 [7]; 39 µM with HCT-116 [8]; 11 µM in the experiment on A549 [9]; 38 µM in the experiment on PC-3 [10]. The inhibition of growth at 50 µM with A549 [1] turned out to be 73%; in the experiment with PC-3 [2], 46%; in the experiment with MCF7 [3], 84%; in the experiment on HCT-116 [4], 49%; in the experiment with T98G [5], 99%.
As to `CC1=C2C[C@H]3O[C@@]3(C)[C@@H]2[C@H]2OC(=O)[C@@H](CNCc3cn(-c4cc(Cl)c(Cl)cc4Cl)nn3)[C@@H]2CC1`, the IC50 in the experiment with T98G [6] worked out at 17 µM; with MCF7 [7] it was 12 µM; in the experiment with HCT-116 [8], 18 µM; in the experiment with A549 [9] it was 21 µM; with PC-3 [10] it was 11 µM. Moreover, the inhibition of growth at 50 µM in the experiment on A549 [1] came out at 91%; with PC-3 [2], 73%; with MCF7 [3], 81%; in the experiment on HCT-116 [4], 74%; in the experiment with T98G [5] it was 77%.
For the molecule `CC1=C2C[C@H]3O[C@@]3(C)[C@@H]2[C@H]2OC(=O)[C@@H](CNCc3cn(-c4ccccc4)nn3)[C@@H]2CC1`, the IC50 in the experiment with T98G [6] came to 21 µM; in the experiment with MCF7 [7] it was 21 µM; with HCT-116 [8] it was 37 µM; in the experiment with A549 [9], 24 µM; in the experiment with PC-3 [10], 54 µM. The inhibition of growth at 50 µM with A549 [1] was 77%; in the experiment with PC-3 [2], 56%; in the experiment on MCF7 [3] it was 77%; with HCT-116 [4], 58%; in the experiment with T98G [5] it was 73%.
For the molecule `CC1=C2C[C@H]3O[C@@]3(C)[C@@H]2[C@H]2OC(=O)[C@@H](CNCc3cn(-c4cccc5ccccc45)nn3)[C@@H]2CC1`, the inhibition of growth at 50 µM was 21% with A549 [1]; 8% with PC-3 [2]; 0% with MCF7 [3]; 48% in the experiment on HCT-116 [4]; 32% in the experiment on T98G [5].
The like results for `CC1=C2C[C@H]3O[C@@]3(C)[C@@H]2[C@H]2OC(=O)[C@@H](CNCc3cn(-c4ccccc4Cl)nn3)[C@@H]2CC1` were, in that order, 32%, 28%, 12%, 6% and 37%.
Regarding `CC1=C2C[C@H]3O[C@@]3(C)[C@@H]2[C@H]2OC(=O)[C@@H](CNCc3cn(-c4ccccc4Br)nn3)[C@@H]2CC1`, the inhibition of growth at 50 µM turned out to be 68% with A549 [1]; 0% with PC-3 [2]; 22% in the experiment on MCF7 [3]; 79% with HCT-116 [4]; 17% with T98G [5]. Also, the figures for the IC50 in the experiment on HCT-116 [8] and in the experiment on A549 [9] were 26 µM and 24 µM, respectively.
With `CC1=C2C[C@H]3O[C@@]3(C)[C@@H]2[C@H]2OC(=O)[C@@H](CNCc3cn(-c4ccc(Br)cc4)nn3)[C@@H]2CC1`, the IC50 in the experiment on T98G [6] turned out to be 52 µM; in the experiment on MCF7 [7] it was 32 µM; in the experiment on HCT-116 [8] it was 35 µM; in the experiment with A549 [9], 39 µM. In addition, the inhibition of growth at 50 µM in the experiment with A549 [1] was determined as 74%; in the experiment on PC-3 [2] it was 28%; in the experiment with MCF7 [3], 79%; with HCT-116 [4], 72%; in the experiment with T98G [5], 58%.
`COc1ccccc1-n1cc(CNC[C@@H]2C(=O)O[C@H]3[C@H]2CCC(C)=C2C[C@H]4O[C@@]4(C)[C@@H]23)nn1`: the inhibition of growth at 50 µM is 21% with A549 [1]; 40% in the experiment with PC-3 [2]; 0% in the experiment on MCF7 [3]; 38% in the experiment on HCT-116 [4]; 34% with T98G [5].
The like results for `COc1cccc(-n2cc(CNC[C@@H]3C(=O)O[C@H]4[C@H]3CCC(C)=C3C[C@H]5O[C@@]5(C)[C@@H]34)nn2)c1` were, in that order, 8%, 0%, 6%, 0% and 0%.
For `C=C1C(=O)O[C@H]2[C@H]1CCC(C)=C1C[C@H]3O[C@@]3(C)[C@@H]12` [LUDARTIN], the IC50 was 6.3 µM with T98G [6] and 0.5 µM in the experiment with MCF7 [7]. Moreover, the inhibition of growth at 50 µM in the experiment on A549 [1] worked out at 97%; in the experiment on PC-3 [2], 97%; with MCF7 [3] it was 100%; with HCT-116 [4] it was 97%; with T98G [5], 97%.
